Legend:
[1] = test system: primary cultured hippocampal neurons damaged by NMDA; assay: NMDA damage of primary cultured hippocampal neurons, MTT viability; assay type: cell-based, SD (Sprague-Dawley) rat; settings: for hippocampal neuron activity after NMDA damage (MTT): MK801 10 μM
Description: (1) Establishment of NMDA damage model. Primary culture of hippocampal neurons: SD (Sprague-Dawley) female rats pregnant for 18-19 days were anesthetized with a compound anaesthetic agent; fetal rat brains were taken under aseptic conditions and placed in HBSS solution (8.4 g/L of NaCl, 0.224 g/L of KCl, 2.38 g/L of HEPES, 500,000 units of penicillin sodium and 500,000 units of kanamycin sulfate; the pH was adjusted to 7.1-7.2 with 1M NaOH; then the osmotic pressure was adjusted to about 290±10 m Osm with ultrapure water; and after filtration, the solution was stored at 4° C.); the meninges were removed under a stereoscopic dissecting microscope; the bilateral hippocampus was removed and digested in 0.125% pancreatic protease at 37° C. for 10 min; and complete media (90% DMEM medium+10% FBS) (FBS: fetal bovine serum) was used to terminate the digestion; the bilateral hippocampus was washed for 3 times with the complete media to make a single cell suspension; the cell density was adjusted to about 7-8×10^5/ml; and the bilateral hippocampus was inoculated to a 6-well/96-well cell culture plate/60 mm culture dish/slide coated with L-polylysine. After 24 hours, the media were changed to serum-free neurobasal media (GIBCO) which were then placed in a 5% CO2, 37° C. incubator for culture; and half of the solution was changed every three days.
(2) NMDA damage treatment of hippocampal neurons: (1) The original media were sucked out and the cells were washed with magnesium-free extracellular fluid for three times, each for 5 minutes. (2) 10 mM NMDA (N-methyl-D-aspartic acid) and 10 mM Gly (glycine) were prepared with magnesium-free extracellular fluid, and NMDA was prepared to different concentrations with the magnesium-free extracellular fluid, wherein the final concentration of Gly was 10 μM. […] After damage, the cells were washed for three times with DMEM medium, each for 5 minutes. (3) The original culture media were re-added to continue for culturing for 24 hours.
(3) Detection of viability of hippocampal neurons after NMDA damage: (1) The hippocampal neurons were inoculated into a 96-well culture plate at 8×10^5 cells/ml, 0.1 ml per well, and cultured in a 5% CO2 incubator for 7-8 days. (2) After NMDA damage treatment and continuous culture for 24 hours, the culture solution was sucked off. (3) 100 μl of DMEM culture medium containing MTT (3-(4,5-dimethylthiazole-2)-2,5-diphenyltetrazolium bromide, 0.5 mg/ml) was added to each well, and the culture plate was put into 37° C., 5% CO2 incubator for culturing for 4 h. (4) 100 μl of 20% SDS was added to each well (20 g of sodium lauryl sulfate was dissolved in 50 ml of ddH2O+50 ml of N,N dimethylformamide) at 37° C. for 20 h. (5) The solution was shaken on a horizontal shaker for 5 min. (6) The optical density (OD) was measured at 570 nm (reference wavelength of 490 nm) on a microplate reader.
(6) Effect of ABPPk2 on decrease of hippocampal neuron activity caused by NMDA. Effect of different concentrations of ABPPk2 on hippocampal neuron damage caused by NMDA (100 μM, 30 min). The experiment was divided into 9 experimental groups: a normal group, NMDA (100 μM, 30 min) group (as a control group), ABPPk2 (0.01 μg/ml) group, ABPPk2 (0.1 μg/ml) group, ABPPk2 (0.3 μg/ml) group, ABPPk2 (1 μg/ml) group, ABPPk2 (3 μg/ml) group, ABPPk2 (10 μg/ml) group and MK801 (dizocilpine, 10 μM) group (as a positive control group). Three administration ways were adopted for ABPPk2: (1) ABPPk2 was administered 12 hours before and during the NMDA damage. (2) ABPPk2 was administered during NMDA damage. (3) ABPPk2 was administered during 24 hours of culture after NMDA damage.

[2] = test system: primary cultured SD fetal rat cortical neurons after OGD damage; assay: OGD damage of cortical neurons, Hoechst 33258 staining of apoptotic bodies; assay type: cell-based; settings: OGD 2 h, 24 h reoxygenation; ABPPk2 8, 40, 200 ng/ml, dose-dependent; BDNF 10 ng/ml
Method: The suspension was filtered with a 400-mesh screen, centrifuged at 1000 rpm for 5 min, and blown to form the single cell suspension. DMEM high glucose complete medium (containing 10% fetal bovine serum) was inoculated in a culture dish or culture plate pre-coated with polylysine (PLL) to culture in 5% CO2 incubator with saturated humidity at 37° C. After the cells were cultured for 4 h to adhere to the wall, the cells were cultured with neuron culture medium (neurobasal+2% B27) for 3 d to observe the growth of neurons. The culture medium containing cytarabine (the final concentration of cytarabine was 2.5 μg/ml) was substituted with half quantity to culture for 3d to inhibit the growth of glial cells and miscellaneous cells to obtain purely cultured primary cortical nerve cells. The purity of the cortical neurons was identified by immunocytochemical staining as more than 90%.
After the cortical neurons were cultured to the 7th day, the original culture medium was sucked out, and the cells were rinsed twice with sugar-free DMEM basal medium, for 5 min each time. Each OGD damage group was added with DMEM sugar-free culture medium, placed in a Billups-Rothenberg anaerobic culture chamber, filled with 95% N2/5% CO2 to balance for 15 min, and sealed for 2 h to build an OGD model. […]

Question: How did the “hippocampal neuron activity after NMDA damage (MTT)” value (from here on “hippocampal neuron activity”) ([1]; given 12 h before and during NMDA (100 μM, 0.5 h), ABPPk2 0.1, 0.3 and 1 μg/ml groups) turn out when `C[C@]12N[C@H](Cc3ccccc31)c1ccccc12` [MK801, dizocilpine, reference compound] was run?
Answer: can effectively reduce the decrease of hippocampal neuron activity caused by NMDA damage

Question: And the “hippocampal neuron activity” value ([1]; given during 24 h culture after NMDA damage (100 μM, 0.5 h), ABPPk2 0.1-10 μg/ml)?
Answer: can effectively reduce the decrease of hippocampal neuron activity caused by NMDA damage

Question: And the “hippocampal neuron activity” value ([1]; given during NMDA damage (100 μM, 0.5 h), ABPPk2 1 and 10 μg/ml groups)?
Answer: can effectively reduce the decrease of hippocampal neuron activity caused by NMDA damage

Question: For “CLETSGSCIPGAQHNCCSGVCVPLVTLFYGVCY (Achyranthes bidentata Blume) [SEQ ID No: 3]”, which “protective effect on NMDA damage of primary hippocampal neurons” value ([1]; overall statement, experimental solution of embodiment 6, concentration and administration way not stated) is on record?
Answer: can effectively reduce the decrease of hippocampal neuron activity caused by NMDA damage

B1: BDNF: positive control group, final concentration of 10 ng/ml (protein, UniProt P23560 19-247, looked up)
Neurotrophic factor BDNF …: APMKEANIRGQGGLAYPGVRTHGTLESVNGPKAGSRGLTSLADTFEHVIEELLDEDQKVRPNEENNKDADLYTSRVMLSSQVPLEPPLLFLLEEYKNYLDAANMSMRVRRHSDPARRGELSVCDSISEWVTAADKKTAVDMSGGTVTVLEKVPVSKGQLKQYFYETKCNPMGYTKEGCRGIDKRHWNSQCRTTQSYVRALTMDSKKRIGWRFIRIDTSCVCTLTIKRGR
Question: For B1, which “apoptotic bodies of cortical neuron nuclei” value [2] is on record?
Answer: the apoptotic bodies are reduced

Source: patent publication US20230151065A1, “MULTI-DISULFIDE-BOND LONG-CHAIN PEPTIDE WITH NEURO[…], PHARMACEUTICAL COMPOSITION AND APPLICATION” (priority 2018, published 2023)
